Test system: A375 multi-cell spheroids with HUVEC/MSC, viability
Experiment: Anticancer human tumor A375 cell line growth inhibition [GQUAD];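 note: spheroids exposed to compounds for seven days before readout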
Conditions: for IC50: curve of first compound; for viability, T/C: stronger effect = lower value
Description: DNA G-quadruplex Stabilizer Agents in Combinations in Complex Spheroids
A high-throughput screen of multi-cell type tumor spheroids was designed to identify active combinations of DNA G-quadruplex stabilizer agents and targeted small molecules. Complex spheroids include a stromal component modeled by human endothelial cells (HUVEC) and fibroblasts modeled by human mesenchymal stem cells (MSCs). The concentration ranges selected for each drug and investigational agent were based upon clinically achievable concentrations if the clinical Cmax of the agent was known.
Compounds. The drugs and investigational agents: pidnarulex (CX-5461; NSC782164), APTO-253 (NSC789042), BRACO-19 (NSC847499), peposertib (NSC802822), ceralasertib (NSC780249), elimusertib (NSC800525), camonsertib (NSC841442), AZD-1390 (NSC803789), olaparib (NSC753686), talazoparib (NSC767125), ART-558 (NSC835418), sotorasib (NSC818433), MRTX-1133 (NSC836407), SN-38 (NSC673596), topotecan (NSC609699), etoposide (NSC141540), doxorubicin (NSC123127), gemcitabine (NSC613327), 5-fluorouracil (NSC19893), paclitaxel (NSC125973), vemurafenib (NSC761431), panobinostat (NSC761190), R-306465 (JNJ-16241199; NSC773264), adavosertib (NSC754352), TP-3654 (NSC805149), carboplatin (NSC241240), KSQ-4279 (NSC840948), and staurosporine (NSC755774) were obtained from the National Cancer Institute (NCI) Developmental Therapeutics Program Chemical Repository (34). The FDA-approved anticancer drug set is available from the NCI Developmental Therapeutics Program. […] The stock solutions were prepared in dimethyl sulfoxide (DMSO, Sigma-Aldrich, St. Louis, MO, cat. D2650) at 800-fold the tested concentration and stored at -70 degrees C prior to their use. All drugs and investigational agents were tested over a range starting from a high concentration at or near the clinical Cmax and decreasing in half-log increments. If the clinical Cmax for an agent had not been determined, the highest concentration tested was 10 microM.
2.3 Cell Culture. All cells were maintained in an incubator at 37 degrees C and 5% CO2 with 95% humidity. The PDC lines were cultured according to standard operating procedures established by the NCI PDMR. All PDCs were thawed and cultured in Matrigel-coated flasks prepared with a working solution of 1X Ham's F-12 nutrient mix, without supplementation (Invitrogen, cat. 11765054), 100 U/mL penicillin-streptomycin (Invitrogen, cat. 15140122), and 2.5% Matrigel (Corning Inc., cat. 354248) for the first three passages. The 857933-349-R-J2-PDC line was cultured in 6C/Colon 1B media, which includes advanced DMEM/F-12 (Thermo Fisher Scientific, cat. 12634028), 10 mM HEPES (Thermo Fisher Scientific, cat. 15630080), 1X GlutaMAX supplement (Thermo Fisher Scientific, cat. 35050061), 0.1 mg/mL primocin (InvivoGen, cat. ant-pm-2), 10% defined fetal bovine serum, heat inactivated (HyClone Laboratories Inc., cat. SH30070.03HI), 50% L-WRN conditioned media (ATCC, cat. CRL-3276), 1.25 mM N-Acetyl-L-cysteine (Sigma-Aldrich, cat. A9165), 10 mM nicotinamide (Sigma-Aldrich, cat. N0636), 1X B-27 supplement (Thermo Fisher Scientific, cat. 17504044), 1X N-2 supplement (Thermo Fisher Scientific, cat. 17502048), 10 microM Y-27632 dihydrochloride (Tocris Bioscience, cat. 1254), and 50 ng/mL human EGF recombinant protein (Thermo Fisher Scientific, cat. PHG0311). The 485176-168-R4-J1-PDC line was cultured in Panc media, which includes all 6C/Colon 1B media components plus 100 ng/mL human FGF-10 (Thermo Fisher Scientific, cat. 100-26), 500 nM SB-431542 (Selleckchem, cat. S1067), and gastrin (Tocris, cat. 3006).
[…]

[1] = second compound 0.0316 µM, first compound 0.0316 µM
[2] = second compound 0.0316 µM, first compound 0.1 µM
[3] = second compound 0.0316 µM, first compound 0.316 µM
[4] = second compound 0.0316 µM, first compound 1 µM
[5] = second compound 0.0316 µM, first compound 3.16 µM
[6] = second compound 0.0316 µM, first compound 10 µM
[7] = second compound 0.1 µM, first compound 0.0316 µM
[8] = second compound 0.1 µM, first compound 0.1 µM
[9] = second compound 0.1 µM, first compound 0.316 µM
[10] = second compound 0.1 µM, first compound 1 µM
[11] = second compound 0.1 µM, first compound 3.16 µM
[12] = second compound 0.1 µM, first compound 10 µM
[13] = second compound 0.316 µM, first compound 0.0316 µM
[14] = second compound 0.316 µM, first compound 0.1 µM
[15] = second compound 0.316 µM, first compound 0.316 µM
[16] = second compound 0.316 µM, first compound 1 µM
[17] = second compound 0.316 µM, first compound 3.16 µM
[18] = second compound 0.316 µM, first compound 10 µM
[19] = second compound 1 µM, first compound 0.0316 µM
[20] = second compound 1 µM, first compound 0.1 µM
[21] = second compound 1 µM, first compound 0.316 µM
[22] = second compound 1 µM, first compound 1 µM
[23] = second compound 1 µM, first compound 3.16 µM
[24] = second compound 1 µM, first compound 10 µM
[25] = second compound 3.16 µM, first compound 0.0316 µM
[26] = second compound 3.16 µM, first compound 0.1 µM
[27] = second compound 3.16 µM, first compound 0.316 µM
[28] = second compound 3.16 µM, first compound 1 µM
[29] = second compound 3.16 µM, first compound 3.16 µM
[30] = second compound 3.16 µM, first compound 10 µM
[31] = second compound 10 µM, first compound 0.0316 µM
[32] = second compound 10 µM, first compound 0.1 µM
[33] = second compound 10 µM, first compound 0.316 µM
[34] = second compound 10 µM, first compound 1 µM
[35] = second compound 10 µM, first compound 3.16 µM
[36] = second compound 10 µM, first compound 10 µM

For Cc1cccc(N(C)C(=O)C2C(O)CCN2c2nc(C)cc(C(F)(F)F)c2C#N)c1 (centres undefined) + Cc1[nH]c2ccc(F)cc2c1-c1nc2c3cccnc3c3ncccc3c2[nH]1, the IC50 (second compound 0.0316 µM) was greater than 10 µM, the IC50 (second compound 0.1 µM) was greater than 10 µM and the IC50 (second compound 0.316 µM) was greater than 10 µM. It also gave an IC50 (second compound 1 µM) greater than 10 µM, an IC50 (second compound 3.16 µM) greater than 10 µM and an IC50 (second compound 10 µM) greater than 10 µM. The viability, T/C [1] was 102%, the viability, T/C [2] was 102% and the viability, T/C [3] was 94.8%. For the same compound, the viability, T/C [4] was 98.6%, the viability, T/C [5] was 95.5% and the viability, T/C [6] was 95.2%. It also gave a viability, T/C [7] of 106%, a viability, T/C [8] of 94.5% and a viability, T/C [9] of 105%. It also gave a viability, T/C [10] of 108%, a viability, T/C [11] of 104% and a viability, T/C [12] of 103%. It also gave a viability, T/C [13] of 98.1%, a viability, T/C [14] of 100% and a viability, T/C [15] of 93.5%. It also gave a viability, T/C [16] of 111%, a viability, T/C [17] of 111% and a viability, T/C [18] of 107%. The viability, T/C [19] was 95.7%, the viability, T/C [20] was 101% and the viability, T/C [21] was 106%. For the same compound, the viability, T/C [22] was 109%, the viability, T/C [23] was 103% and the viability, T/C [24] was 105%. For the same compound, the viability, T/C [25] was 80%, the viability, T/C [26] was 90.2% and the viability, T/C [27] was 94.7%. The viability, T/C [28] was 84.2%, the viability, T/C [29] was 89.5% and the viability, T/C [30] was 79.4%. It also gave a viability, T/C [31] of 106%, a viability, T/C [32] of 100% and a viability, T/C [33] of 112%. It also gave a viability, T/C [34] of 106%, a viability, T/C [35] of 97.6% and a viability, T/C [36] of 91.7%.

Nc1ccn(C2OC(CO)C(O)C2(F)F)c(=O)n1 (centres undefined) + Cc1[nH]c2ccc(F)cc2c1-c1nc2c3cccnc3c3ncccc3c2[nH]1 was tested, and the IC50 (second compound 0.0316 µM) was less than 0.0316 µM, the IC50 (second compound 0.1 µM) was less than 0.0316 µM and the IC50 (second compound 0.316 µM) was less than 0.0316 µM. It also gave an IC50 (second compound 1 µM) of less than 0.0316 µM, an IC50 (second compound 3.16 µM) of less than 0.0316 µM and an IC50 (second compound 10 µM) of less than 0.0316 µM. It also gave a viability, T/C [1] of 20.4%, a viability, T/C [2] of 11% and a viability, T/C [3] of 10.3%. For the same compound, the viability, T/C [4] was 8.14%, the viability, T/C [5] was 10.7% and the viability, T/C [6] was 10.2%. It also gave a viability, T/C [7] of 22.9%, a viability, T/C [8] of 9.94% and a viability, T/C [9] of 12%. The viability, T/C [10] was 9.5%, the viability, T/C [11] was 12.2% and the viability, T/C [12] was 8.91%. It also gave a viability, T/C [13] of 21.1%, a viability, T/C [14] of 12.7% and a viability, T/C [15] of 11.2%. For the same compound, the viability, T/C [16] was 10.8%, the viability, T/C [17] was 10.8% and the viability, T/C [18] was 11.3%. The viability, T/C [19] was 22.9%, the viability, T/C [20] was 12.7% and the viability, T/C [21] was 14.8%. For the same compound, the viability, T/C [22] was 13.6%, the viability, T/C [23] was 12.8% and the viability, T/C [24] was 11.8%. It also gave a viability, T/C [25] of 15.4%, a viability, T/C [26] of 13.1% and a viability, T/C [27] of 13%. The viability, T/C [28] was 13.9%, the viability, T/C [29] was 19% and the viability, T/C [30] was 13.9%. It also gave a viability, T/C [31] of 16.1%, a viability, T/C [32] of 10.7% and a viability, T/C [33] of 10.9%. It also gave a viability, T/C [34] of 10.3%, a viability, T/C [35] of 13.2% and a viability, T/C [36] of 12%.

Reference: PubChem BioAssay AID2060485 (Molecular Pharmacology Branch, DTP, NCI, 2025)
